Measured values taken from PMC9818021, “Targets, Mechanisms and Cytotoxicity of Half-Sandwich Ir(III) Complexes Are Modulated by Structural Modifications on the Benzazole Ancillary Ligand” (Cancers, 2022).

Key:
[1] = system: A2780 (epithelial ovarian carcinoma cells); experiment: MTT cytotoxicity assay; format: cell-based, human; conditions: A2780, 48 h
Protocol: (§1) Cell culture. Epithelial ovarian carcinoma cells (A2780) that acquired resistance to cisplatin epithelial ovarian carcinoma cells (A2780cis), colon adenocarcinoma cells (SW480) and epithelial lung adenocarcinoma cells (A549) were provided by Sigma Aldrich. A549 and SW480 cells were grown in Dulbecco′s Modified Eagle′s Medium (DMEM), supplemented with 10% Fetal Bovine Serum (FBS) and 1% penicillin, streptomycin and 1% glutamine for A549 and 1% amphotericin B for SW480. The A2780 and A2780cis were grown in RPMI 1640 supplemented with 10% Fetal Bovine Serum (FBS), 1% glutamine and 1% penicillin, streptomycin and amphotericin B. All cells were incubated in a humidified incubator at 37 °C under a 5% CO2 atmosphere and grown in 100 mm culture dishes to approximately 70–80% confluence. For subculturing, cells were detached with Trypsin-EDTA (Sigma). A549-gal were derived from A549 cultured in glucose-free medium supplemented with 10 mM galactose (Sigma) for at least 10 passes.
(§2) Cytotoxicity. MTT Assay and IC50 estimation. The cytotoxicity of 1[C,NH-Cl], 2[C,NMe-Cl], 3[N,NH-Cl]Cl, 4[N,NMe-Cl]Cl, 5[CNH2,NH-Cl]Cl, 6[CNH2,S-Cl]Cl, 7[CO,NH-Cl] and 8[CO,S-Cl] in A2780, A2780cis, SW480 and A549 carcinoma cells was evaluated by the MTT colorimetric assay. Cells were seeded in 96-well plates at 5000 cells per well and incubated at 37 °C, 5% CO2. After 24 h, the medium was removed and replaced with fresh medium with different concentrations of the compounds under study, and they were incubated for 48 h. Final DMSO concentration was kept below 0.7% in wells. For a negative control, one sequence of cells was left untreated and for vehicle control, cells treated with DMSO were included. For cell viability experiments preincubating with NAC (N-Acetyl-L-Cysteine), the cells were pre-treated with NAC, 10 mM for 2 h before the incubation with complex 1[C,NH-Cl] for 24 h. Then, the medium was removed from the wells, and 100 µL MTT (5 mg/mL) was added. After an incubation time of 4 h, 100 μL of solubilizing detergent solution (SDS, 10% in HCL 0.01 M) was added and kept in the incubator overnight. Cell growth inhibition was detected by measuring the absorbance of each well at 595 nm using a BioTek Cytation5 microplate reader. Each test was repeated in quadruplicate in three independent experiments for each cell line. The percentage of survival cells was calculated using absorbance measurements compared with control and the IC50 estimation using Graph Pad Prism version 6.01.

[2] = system: A2780cis (ovarian, acquired resistance to cisplatin); experiment: MTT cytotoxicity assay; format: cell-based, human; conditions: 48 h; for IC50: A2780cis
Protocol: as §1, §2

[3] = system: A549 (epithelial lung adenocarcinoma cells); experiment: MTT cytotoxicity assay; format: cell-based, human; conditions: A549, 48 h
Protocol: as §1, §2

[4] = system: SW480 (colon adenocarcinoma cells); experiment: MTT cytotoxicity assay; format: cell-based, human; conditions: SW480, 48 h
Protocol: as §1, §2

[5] = system: Calf thymus DNA; experiment: DNA melting temperature (DSC); format: binding; conditions: as a function of CD/CP, overnight incubation
Protocol: Differential scanning calorimetry (DSC) studies were performed in a nano DSC (TA Instruments, Newcastle, USA) to determine the melting temperature of DNA in the absence and in the presence of different amount of the Ir(III) complexes. Cells were 300 μL platinum capillary tubes. Measurements were performed by heating the dye/polynucleotide system from 20 to 90 °C, at 1 °C/min scan rate and 3 atm pressure. To reduce the formation of bubbles upon heating to a minimum, the reference and the sample solutions were previously degassed for 30 min in a degassing station (TA Instruments, Newcastle, USA). The thermograms recorded were analysed with the NanoAnalyze 2.0 software. The buffer–buffer baseline was run at least five heating/cooling cycles until the heating was reproducible, and then, it was subtracted from the sample data.

SMILES | IC50 [1] [µM] | IC50 [2] [µM] | IC50 [3] [µM] | IC50 [4] [µM] | ∆Tm of DNA [5] | Resistance Factor (RF) IC50,A2780CIS/IC50,A2780 [2]
Cc1c(C)c(C)[c-](C)c1C.[Cl-].[Cl][Ir]1[NH2+]c2ccccc2-c2[nH]c3ccccc3[n+]21 [5[CNH2,NH], [(η^5-Cp*)IrCl(κ^2-N,N-apbim)]Cl] | 17 ± 1 | 30 ± 1 | > 100 | 34 ± 1 | +5 oC | 
Cc1c(C)c(C)[c-](C)c1C.[Cl][Ir]1[c]2ccccc2-c2[nH]c3ccccc3[n+]21 [1[C,NH], [(η^5-Cp*)IrCl(κ^2-N,C-pbim)]] | 5 ± 2 | 5 ± 1 | 10 ± 1 | 5 ± 2 | 0 oC | no cross-resistance
Cc1c(C)c(C)[c-](C)c1C.[Cl][Ir]1[O]c2ccccc2-c2[nH]c3ccccc3[n+]21 [7[CO,NH], [(η^5-Cp*)IrCl(κ^2-O,N-hpbim)]] | 14 ± 1 | 42 ± 1 | 43 ± 3 | > 100 | 0 oC | > 2
Cc1c(C)c(C)[c-](C)c1C.[Cl][Ir]1[O]c2ccccc2-c2sc3ccccc3[n+]21 [8[CO,S], [(η^5-Cp*)IrCl(κ^2-O,N-hpbtz)]] | 2 ± 1 | 6 ± 2 | 41 ± 5 | 34 ± 1 | 0 oC | > 2
Cc1c(C)c(C)[c-](C)c1C.[Cl-].[Cl][Ir]1[NH2+]c2ccccc2-c2sc3ccccc3[n+]21 [6[CNH2,S], [(η^5-Cp*)IrCl(κ^2-N,N-apbtz)]Cl] | > 100 | 48 ± 2 | > 100 | 40 ± 1 | +21 oC | 
Cc1c(C)c(C)[c-](C)c1C.Cn1c2[n+](c3ccccc31)[Ir]([Cl])[n+]1ccccc1-2.[Cl-] [4[N,NMe], [(η^5-Cp*)IrCl(κ^2-N,N-pyMebim)]Cl] | > 100 | > 100 | > 100 | > 100 | -14 oC | 
Cc1c(C)c(C)[c-](C)c1C.Cn1c2[n+](c3ccccc31)[Ir]([Cl])[c]1ccccc1-2 [2[C,NMe], [(η^5-Cp*)IrCl(κ^2-N,C-NMepbim)]] | 9 ± 1 | 13 ± 1 | 10 ± 1 |  | 0 oC | no cross-resistance
Cc1c(C)c(C)[c-](C)c1C.[Cl-].[Cl][Ir]1[n+]2ccccc2-c2[nH]c3ccccc3[n+]21 [3[N,NH], [(η^5-Cp*)IrCl(κ^2-N,N-pybim)]Cl] | 84 ± 1 | 48 ± 1 | > 100 | 90 ± 1 | -35 oC | 
